# Source: the supplement of paper PMC10627819
# Columns and labels:
# S. aureus DSM 20231 = test: Bliss interaction score (quartile over a dose matrix) (fitness difference); higher = more antagonism (negative = synergy)
# Procedure, shortened: (§1)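 The Bliss score is observed minus expected fitness under the product model, reported as quartiles over technical, biological and donor/recipient replicates. Fitness is the OD595 at entry into stationary phase divided by the plate's robust no-drug mean and capped at 1. Single-drug fitness was inferred from combination data.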
# S. pneumoniae D39V [1] = test: as above
# Procedure, shortened: as §1
# S. aureus Newman = test: as above
# Procedure, shortened: as §1
# B. subtilis 168 = test: as above
# Procedure, shortened: as §1
# S. pneumoniae D39V [2] = test: fitness (endpoint OD595 vs no drug) (fraction); higher = more growth
# Procedure, shortened: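 Bacterial growth was followed in 384-well plates seeded at OD595 0.01, with 30 µl per well, or 55 µl for S. pneumoniae, in TSB, LB Lennox or CY at 37 °C. OD595 was read every 30 min for 14 h, and each reading had the first reading subtracted as background. Fitness is the background-corrected optical density at entry into stationary phase divided by the robust mean of the no-drug control wells. This ratio is capped at 1.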
# 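Wherever Bliss interaction score (quartile over a dose matrix) is given: first quartile when negative (synergy) and third quartile when positive (antagonism).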
smiles,measurement,setting,value
O=C1CN(/N=C/c2ccc([N+](=O)[O-])o2)C(=O)N1 [Nitrofurantoin] + Cc1onc(-c2ccccc2)c1C(=O)N[C@@H]1C(=O)N2[C@@H]1SC(C)(C)[C@@H]2C(=O)O [Oxacillin],Bliss interaction score,S. aureus DSM 20231,-0.0421
same,Bliss interaction score,S. pneumoniae D39V [1],0.162
same,Bliss interaction score,S. aureus Newman,0.0474
same,Bliss interaction score,B. subtilis 168,0.0329
same,fitness,"S. pneumoniae D39V [2]; first compound 1.285 µg/mL, partner 0.01 µg/mL",0.955
same,fitness,"S. pneumoniae D39V [2]; first compound 1.285 µg/mL, partner 0.02 µg/mL",0.959
same,fitness,"S. pneumoniae D39V [2]; first compound 1.285 µg/mL, partner 0.04 µg/mL",0.761
same,fitness,"S. pneumoniae D39V [2]; first compound 2 µg/mL, partner 0.01 µg/mL",0.928
same,fitness,"S. pneumoniae D39V [2]; first compound 2 µg/mL, partner 0.02 µg/mL",0.873
same,fitness,"S. pneumoniae D39V [2]; first compound 2 µg/mL, partner 0.04 µg/mL",0.475
same,fitness,"S. pneumoniae D39V [2]; first compound 2.57 µg/mL, partner 0.01 µg/mL",0.958
same,fitness,"S. pneumoniae D39V [2]; first compound 2.57 µg/mL, partner 0.02 µg/mL",0.944
same,fitness,"S. pneumoniae D39V [2]; first compound 2.57 µg/mL, partner 0.04 µg/mL",0.754
same,fitness,"S. pneumoniae D39V [2]; first compound 4 µg/mL, partner 0.01 µg/mL",0.932
same,fitness,"S. pneumoniae D39V [2]; first compound 4 µg/mL, partner 0.02 µg/mL",0.864
same,fitness,"S. pneumoniae D39V [2]; first compound 4 µg/mL, partner 0.04 µg/mL",0.531
same,fitness,"S. pneumoniae D39V [2]; first compound 5.14 µg/mL, partner 0.01 µg/mL, one replicate",0.955
same,fitness,"S. pneumoniae D39V [2]; first compound 5.14 µg/mL, partner 0.02 µg/mL, one replicate",0.967
same,fitness,"S. pneumoniae D39V [2]; first compound 5.14 µg/mL, partner 0.04 µg/mL, one replicate",0.795
same,fitness,"S. pneumoniae D39V [2]; first compound 8 µg/mL, partner 0.01 µg/mL",0.802
same,fitness,"S. pneumoniae D39V [2]; first compound 8 µg/mL, partner 0.02 µg/mL",0.798
same,fitness,"S. pneumoniae D39V [2]; first compound 8 µg/mL, partner 0.04 µg/mL",0.53
C[C@@H](O)[C@H]1C(=O)N2C(C(=O)O)=C(SCCNC=N)C[C@H]12 [Imipenem] + CO[C@H]1/C=C/O[C@@]2(C)Oc3c(C)c(O)c4c(O)c(c(/C=N/N5CCN(C)CC5)c(O)c4c3C2=O)NC(=O)/C(C)=C\C=C\[C@H](C)[C@H](O)[C@@H](C)[C@@H](O)[C@@H](C)[C@H](OC(C)=O)[C@@H]1C [Rifampicin],Bliss interaction score,S. aureus DSM 20231,0.0391
same,Bliss interaction score,S. pneumoniae D39V [1],-0.106
same,Bliss interaction score,S. aureus Newman,0.0149
same,Bliss interaction score,B. subtilis 168,0.0636
same,fitness,"S. pneumoniae D39V [2]; first compound 0.005 µg/mL, partner 0.025 µg/mL, one replicate",0.856
same,fitness,"S. pneumoniae D39V [2]; first compound 0.005 µg/mL, partner 0.2 µg/mL, one replicate",0
same,fitness,"S. pneumoniae D39V [2]; first compound 0.0065 µg/mL, partner 0.05 µg/mL",0.678
same,fitness,"S. pneumoniae D39V [2]; first compound 0.0065 µg/mL, partner 0.1 µg/mL",0.402
same,fitness,"S. pneumoniae D39V [2]; first compound 0.0065 µg/mL, partner 0.2 µg/mL",0.254
same,fitness,"S. pneumoniae D39V [2]; first compound 0.01 µg/mL, partner 0.025 µg/mL, one replicate",0.81
same,fitness,"S. pneumoniae D39V [2]; first compound 0.01 µg/mL, partner 0.2 µg/mL, one replicate",0
same,fitness,"S. pneumoniae D39V [2]; first compound 0.013 µg/mL, partner 0.05 µg/mL",0.721
same,fitness,"S. pneumoniae D39V [2]; first compound 0.02 µg/mL, partner 0.025 µg/mL, one replicate",0.816
same,fitness,"S. pneumoniae D39V [2]; first compound 0.02 µg/mL, partner 0.05 µg/mL",0.726
same,fitness,"S. pneumoniae D39V [2]; first compound 0.02 µg/mL, partner 0.2 µg/mL, one replicate",0
same,fitness,"S. pneumoniae D39V [2]; first compound 0.026 µg/mL, partner 0.05 µg/mL",0.695
same,fitness,"S. pneumoniae D39V [2]; first compound 0.026 µg/mL, partner 0.1 µg/mL",0.361
O=C1CN(/N=C/c2ccc([N+](=O)[O-])o2)C(=O)N1 [Nitrofurantoin] + CO[C@H]1/C=C/O[C@@]2(C)Oc3c(C)c(O)c4c(O)c(c(/C=N/N5CCN(C)CC5)c(O)c4c3C2=O)NC(=O)/C(C)=C\C=C\[C@H](C)[C@H](O)[C@@H](C)[C@@H](O)[C@@H](C)[C@H](OC(C)=O)[C@@H]1C [Rifampicin],Bliss interaction score,S. aureus DSM 20231,-0.0228
same,Bliss interaction score,S. pneumoniae D39V [1],-0.117
same,Bliss interaction score,S. aureus Newman,-0.0316
same,Bliss interaction score,B. subtilis 168,-0.0448
same,fitness,"S. pneumoniae D39V [2]; first compound 1.285 µg/mL, partner 0.05 µg/mL",0.825
same,fitness,"S. pneumoniae D39V [2]; first compound 1.285 µg/mL, partner 0.1 µg/mL",0.372
same,fitness,"S. pneumoniae D39V [2]; first compound 1.285 µg/mL, partner 0.2 µg/mL",0.129
same,fitness,"S. pneumoniae D39V [2]; first compound 2 µg/mL, partner 0.025 µg/mL, one replicate",0.873
same,fitness,"S. pneumoniae D39V [2]; first compound 2 µg/mL, partner 0.05 µg/mL",0.789
same,fitness,"S. pneumoniae D39V [2]; first compound 2 µg/mL, partner 0.2 µg/mL, one replicate",0
same,fitness,"S. pneumoniae D39V [2]; first compound 2.57 µg/mL, partner 0.05 µg/mL",0.798
same,fitness,"S. pneumoniae D39V [2]; first compound 2.57 µg/mL, partner 0.1 µg/mL",0.353
same,fitness,"S. pneumoniae D39V [2]; first compound 2.57 µg/mL, partner 0.2 µg/mL",0.166
same,fitness,"S. pneumoniae D39V [2]; first compound 4 µg/mL, partner 0.025 µg/mL, one replicate",0.85
same,fitness,"S. pneumoniae D39V [2]; first compound 4 µg/mL, partner 0.05 µg/mL",0.781
same,fitness,"S. pneumoniae D39V [2]; first compound 4 µg/mL, partner 0.2 µg/mL, one replicate",0
same,fitness,"S. pneumoniae D39V [2]; first compound 5.14 µg/mL, partner 0.05 µg/mL, one replicate",0.806
same,fitness,"S. pneumoniae D39V [2]; first compound 5.14 µg/mL, partner 0.1 µg/mL, one replicate",0.369
same,fitness,"S. pneumoniae D39V [2]; first compound 5.14 µg/mL, partner 0.2 µg/mL, one replicate",0.171
same,fitness,"S. pneumoniae D39V [2]; first compound 8 µg/mL, partner 0.025 µg/mL, one replicate",0.782
same,fitness,"S. pneumoniae D39V [2]; first compound 8 µg/mL, partner 0.05 µg/mL",0.668
same,fitness,"S. pneumoniae D39V [2]; first compound 8 µg/mL, partner 0.1 µg/mL",0.351
same,fitness,"S. pneumoniae D39V [2]; first compound 8 µg/mL, partner 0.2 µg/mL, one replicate",0
